In patent US10391104B2, “Application of antidepressant compound in preparation of antidepressant drugs and antidepressant health-care foods” (ZHEJIANG ACADEMY OF MEDICAL SCIENCES, priority 2015, dated 2019):

Assays:
Male Kunming mice [1] = assay: mouse forced swimming test; assay type: in vivo; details: for effect on immobility time compared with normal saline control: 15 mg/kg
Description: (§1) Experimental method: the experiment was made using the mouse forced swimming test and tail suspension test according to the experimental methodology of pharmacology (see the description of these methods in Xu Shuyun et al. Experimental Methodology of Pharmacology. People's Medical Publishing House, 2005: 807-808) by subacute treatment (administered twice within 24 hours) and by intraperitoneal administration. The solvent control and the positive control with fluoxetine and imipramine were established in the experiment.
(§2) Administration method: totally 6 dosage groups of sarcostin were established: 0.05, 0.1, 0.25, 0.5, 1, 5 mg/kg. Male Kunming mice were randomly grouped in the experiment. All test samples were intraperitoneally administered at a volumetric dose of 0.1 mL/10 g. Administration frequency and time: test was made twice respectively in 0 and 19 h, and test was made in 24 h after the first administration. Positive control: 15 mg/kg of fluoxetine and 15 mg/kg of imipramine.

Male Kunming mice [2] = assay: mouse tail suspension test; assay type: in vivo
Description: as §1, §2

male ICR mice = assay: preliminary acute toxicity test; assay type: in vivo, mouse; details: for toxic reaction: four times in 24 h, observed 7 days; for toxic and side reaction: preliminary acute toxicity test, no doses given
Description: (§3) Experimental method: 20 clean male ICR mice were randomly divided into two groups, and fasted for 12 h before the experiment. Sarcostin was administered many times based on its maximum dissolution amount and maximum administration volume. For the oral administration group, sarcostin was prepared with ultra-pure water (maximum dissolution amount: 1.5 mg/mL), and was intragastrically administered four times in 24 hours with 0.3 ml/10 g body weight each time, and with the total dosage of 180 mg/kg. For the intraperitoneal injection group, sarcostin was prepared with normal saline (maximum dissolution amount: 1.0 mg/mL), and was intraperitoneally injected four times in 24 hours with 0.3 ml/10 g body weight each time, and with the total dosage of 120 mg/kg.

[3] = maximum dissolution amount; assay type: physicochemical
Description: as §3

mice = assay: antidepressant activity test of compounds 3, 23 and derivatives; assay type: in vivo, mouse; details: no doses given
Description: The solvent control and the positive control with fluoxetine and imipramine were established in the experiment.
as §2, with “administration.” for “administration. Positive control: 15 mg/kg of fluoxetine and 15 mg/kg of imipramine.”

[4] = 15 mg/kg i.p., twice within 24 h (0 and 19 h), test at 24 h
[5] = tail suspension test, 15 mg/kg i.p., twice within 24 h (0 and 19 h), test at 24 h

CNCCC(Oc1ccc(C(F)(F)F)cc1)c1ccccc1 (stereo not drawn) [Fluoxetine, reference compound]
effect on immobility time compared with normal saline control (Male Kunming mice [1]): significantly reduced the immobility time
Immobility time (Average value, s) (Male Kunming mice [1]; [4]): 79.00 s
effect on immobility time compared with normal saline group (Male Kunming mice [2]; tail suspension test, 15 mg/kg): significantly reduced the immobility time
Immobility time (Average value, s) (Male Kunming mice [2]; [5]): 132.45 s

CN(C)CCCN1c2ccccc2CCc2ccccc21 [Imipramine, reference compound]
effect on immobility time compared with normal saline control (Male Kunming mice [1]): significantly reduced the immobility time
Immobility time (Average value, s) (Male Kunming mice [1]; [4]): 92.05 s
effect on immobility time compared with normal saline group (Male Kunming mice [2]; tail suspension test, 15 mg/kg): significantly reduced the immobility time
Immobility time (Average value, s) (Male Kunming mice [2]; [5]): 155.37 s

C[C@H](O)[C@]1(O)CC[C@@]2(O)[C@]1(C)[C@H](O)C[C@@H]1[C@@]3(C)CC[C@H](O)CC3=CC[C@]12O [Sarcostin]
preferred dose (Male Kunming mice [1]): 0.1 mg/kg
Immobility time (Average value, s) (Male Kunming mice [1]; 0.05 mg/kg i.p., twice within 24 h): 85.13 s
Immobility time (Average value, s) (Male Kunming mice [1]; 0.1 mg/kg i.p., twice within 24 h): 83.63 s
Immobility time (Average value, s) (Male Kunming mice [1]; 0.25 mg/kg i.p., twice within 24 h): 112.63 s
Immobility time (Average value, s) (Male Kunming mice [1]; 0.5 mg/kg i.p., twice within 24 h): 118.19 s
Immobility time (Average value, s) (Male Kunming mice [1]; 1 mg/kg i.p., twice within 24 h): 125.44 s
Immobility time (Average value, s) (Male Kunming mice [1]; 5 mg/kg i.p., twice within 24 h): 91.50 s
antidepressant activity compared with normal saline control (Male Kunming mice [1]; 0.05 to 0.5 mg/kg): significant antidepressant activities
toxic reaction (male ICR mice; intragastric, total 180 mg/kg): without obvious toxic and side reaction
toxic reaction (male ICR mice; intraperitoneal injection, total 120 mg/kg): without obvious toxic and side reaction
preferred dosage (Male Kunming mice [2]; tail suspension test): 0.5 mg/kg
Immobility time (Average value, s) (Male Kunming mice [2]; tail suspension test, 0.05 mg/kg i.p., twice within 24 h): 177.94 s
Immobility time (Average value, s) (Male Kunming mice [2]; tail suspension test, 0.1 mg/kg i.p., twice within 24 h): 167.77 s
Immobility time (Average value, s) (Male Kunming mice [2]; tail suspension test, 0.25 mg/kg i.p., twice within 24 h): 207.60 s
Immobility time (Average value, s) (Male Kunming mice [2]; tail suspension test, 0.5 mg/kg i.p., twice within 24 h): 166.46 s
Immobility time (Average value, s) (Male Kunming mice [2]; tail suspension test, 1 mg/kg i.p., twice within 24 h): 200.99 s
Immobility time (Average value, s) (Male Kunming mice [2]; tail suspension test, 5 mg/kg i.p., twice within 24 h): 177.05 s
antidepressant trend (Male Kunming mice [2]; tail suspension test, 0.1, 0.5 and 0.05 mg/kg groups): showed antidepressant trend
effect on immobility time compared with normal saline group (Male Kunming mice [2]; tail suspension test, all sarcostin doses): did not significantly reduce the immobility time
maximum dissolution amount ([3]; normal saline): 1.0 mg/mL
maximum dissolution amount ([3]; ultra-pure water): 1.5 mg/mL

CC=C(C)C(=O)OC(C)C1(O)CCC2(O)C3(O)CC=C4CC(O)CCC4(C)C3CC(OC(=O)C(C)=CC)C12C (stereo not drawn) [compound 3, 12-O-tigloyl-20-O-tigloylsarcostin]
toxic and side reaction (male ICR mice): no significant toxic and side reaction
antidepressant activity (mice): significant antidepressant activities

CNc1ccccc1C(=O)OC1CC2C3(C)CCC(O)CC3=CCC2(O)C2(O)CCC(O)(C(C)=O)C12C (stereo not drawn) [compound 23, 12-O-(N-methyl) anthraniloyl deacetylmetaplexigenin]
toxic and side reaction (male ICR mice): no significant toxic and side reaction
antidepressant activity (mice): significant antidepressant activities
